Measurements: patent publication US9987278B2, “Pharmaceutical composition for treating FLT3 mutation-positive cancer, mutant FLT3 inhibitor and uses thereof” (FUJIFILM Corporation, priority 2014, dated 2018)

Molecular target: mutant FLT3 protein (FLT3 D835Y) (Homo sapiens (Human), UniProt P36888, D835Y)
Assay: Mutant FLT3 (FLT3 D835Y) enzyme inhibition assay
Format: biochemical
Settings: ATP 15 μmol/L, read-out: IC50 value for an enzymatic activity of a mutant FLT3 protein

CCCNc1nc(Nc2ccc(C(N)=O)cc2)ncc1C#Cc1cccc(NC(=O)[C@H](C)N(C)C(=O)/C=C/CN(C)C)c1 [Compound 29]
IC50: < 1 nM

CCCNc1nc(NCCc2ccncc2)ncc1C(=O)Nc1cccc(NC(=O)[C@H](C)NC(=O)/C=C/CN(C)C)c1 [Compound 24]
IC50: < 1 nM

CCCNc1nc(Nc2cccc(C#N)c2)ncc1C#CCCCNC(=O)[C@H](C)N(C)C(=O)/C=C/CN(C)C [Compound 33]
IC50: 1 to 10 nM

CCCNc1nc(Nc2ccc(C(N)=O)cc2)ncc1C(=O)NC1CCCC(NC(=O)CN(C)C(=O)/C=C/CN(C)C)C1 (stereo not shown) [Compound 26]
IC50: < 1 nM

C=CC(=O)NCC(=O)NCCCNC(=O)c1cnc(NCCc2ccncc2)nc1NCCC [Compound 7]
IC50: < 1 nM

C=CC(=O)NC(C)(C)C(=O)Nc1cccc(NC(=O)c2cnc(NCCc3ccncc3)nc2NCCC)c1 [Compound 9]
IC50: < 1 nM

C=CC(=O)NCC(=O)Nc1cccc(CNC(=O)c2cnc(NCCc3ccncc3)nc2NCCC)c1 [Compound 1]
IC50: 1 to 10 nM

CCCNc1nc(Nc2ccc(C(N)=O)cc2)ncc1C(=O)Nc1cccc(NC(=O)[C@H](C)N(C)C(=O)/C=C/CN(C)C)c1 [Compound 27]
IC50: < 1 nM

CCCNc1nc(Nc2ccc(C(N)=O)cc2)ncc1C#Cc1cccc(NCCNC(=O)/C=C/CN(C)C)c1 [Compound 31]
IC50: 1 to 10 nM

CCCNc1nc(NCCc2ccncc2)ncc1C#Cc1cccc(NC(=O)[C@H](C)N(C)C(=O)/C=C/CN(C)C)c1 [Compound 35]
IC50: < 1 nM

CCCNc1nc(NCCc2ccncc2)ncc1C(=O)Nc1cccc(NC(=O)CNC(=O)/C=C/CN(C)C)c1 [Compound 5]
IC50: < 1 nM

CCCNc1nc(NCCc2ccncc2)ncc1C(=O)Nc1cccc(NC(=O)CNC(=O)/C=C/CN2CCOCC2)c1 [Compound 13]
IC50: 1 to 10 nM

CCCNc1nc(Nc2ccc3cnccc3c2)ncc1C(=O)Nc1cccc(NC(=O)[C@H](C)N(C)C(=O)/C=C/CN(C)C)c1 [Compound 28]
IC50: < 1 nM

C=CC(=O)NCC(=O)Nc1ccccc1CNC(=O)c1cnc(NCCc2ccncc2)nc1NCCC [Compound 3]
IC50: 1 to 10 nM

C=CC(=O)NCC(=O)NC(CC)CCNC(=O)c1cnc(NCCc2ccncc2)nc1NCCC (stereo not shown) [Compound 17]
IC50: < 1 nM

CCCNc1nc(NCCc2ccncc2)ncc1C(=O)NCCC(CC)NC(=O)CN(C)C(=O)/C=C/CN(C)C (stereo not shown) [Compound 20]
IC50: < 1 nM

C=CC(=O)NCCNc1cccc(NC(=O)c2cnc(NCCc3ccncc3)nc2NCCC)c1 [Compound 15]
IC50: 1 to 10 nM

C=CC(=O)NCC(=O)N(C)c1cccc(NC(=O)c2cnc(NCCc3ccncc3)nc2NCCC)c1 [Compound 11]
IC50: 1 to 10 nM

CCCNc1nc(NCCc2ccncc2)ncc1C(=O)Nc1cccc(NC(=O)CNC(=O)/C=C/CN2CC(C)NC(C)C2)c1 (stereo not shown) [Compound 21]
IC50: < 1 nM

C=CC(=O)N[C@@H](C)C(=O)Nc1cccc(NC(=O)c2cnc(NCCc3ccncc3)nc2NCCC)c1 [Compound 16]
IC50: < 1 nM

C=CC(=O)N[C@H](C)C(=O)Nc1cccc(NC(=O)c2cnc(NCCc3ccncc3)nc2NCCC)c1 [Compound 8]
IC50: 1 to 10 nM

CCCNc1nc(NCCc2ccncc2)ncc1C(=O)Nc1cccc(NC(=O)[C@H](C)N(C)C(=O)/C=C/CN(C)C)c1 [Compound 30]
IC50: < 1 nM

CCCN(C)c1nc(NCCc2ccncc2)ncc1C#Cc1cccc(NC(=O)[C@H](C)N(C)C(=O)/C=C/CN(C)C)c1 [Compound 37]
IC50: < 1 nM

C=CC(=O)NCCOc1cccc(NC(=O)c2cnc(NCCc3ccncc3)nc2NCCC)c1 [Compound 6]
IC50: 1 to 10 nM

CCCNc1nc(NCCc2ccncc2)ncc1C(=O)NCCCNC(=O)CNC(=O)/C=C/CN(C)C [Compound 23]
IC50: < 1 nM

C=CC(=O)N(C)CC(=O)Nc1cccc(NC(=O)c2cnc(NCCc3ccncc3)nc2NCCC)c1 [Compound 10]
IC50: < 1 nM

CCCNc1nc(NCCc2ccncc2)ncc1C(=O)Nc1ccc(C)c(NC(=O)CNC(=O)/C=C/CN(C)C)c1 [Compound 22]
IC50: < 1 nM

CCCNc1nc(Nc2cccc(F)c2)ncc1C#CCCCNC(=O)[C@H](C)N(C)C(=O)/C=C/CN(C)C [Compound 34]
IC50: < 1 nM

CCCNc1nc(Nc2ccc(C(N)=O)cc2)ncc1C(=O)Nc1cccc(NC(=O)[C@H](C)N(C)C(=O)/C=C/CN2CC(O)C2)c1 [Compound 32]
IC50: < 1 nM

C=CC(=O)NCC(=O)Nc1cc(Cl)cc(NC(=O)c2cnc(NCCc3ccncc3)nc2NCCC)c1 [Compound 4]
IC50: 1 to 10 nM

C[C@@H](C(=O)Nc1cccc(C#Cc2cnc(NCCc3ccncc3)nc2N2CCOCC2)c1)N(C)C(=O)/C=C/CN(C)C [Compound 36]
IC50: < 1 nM

CCCNc1nc(NCCc2ccncc2)ncc1C(=O)NCCC(CC)NC(=O)CNC(=O)/C=C/CN(C)C (stereo not shown) [Compound 18]
IC50: < 1 nM

CCCNc1nc(NCCc2ccncc2)ncc1C(=O)Nc1cccc(NC(=O)CNC(=O)/C=C/CN2CCN(C)CC2)c1 [Compound 12]
IC50: 1 to 10 nM

C=CC(=O)N(C)CC(=O)NC(CC)CCNC(=O)c1cnc(NCCc2ccncc2)nc1NCCC (stereo not shown) [Compound 19]
IC50: < 1 nM

CCCNc1nc(NCCc2ccncc2)ncc1C(=O)Nc1cccc(NC(=O)CNC(=O)/C=C/CN2CCN(CCO)CC2)c1 [Compound 14]
IC50: < 1 nM

C=CC(=O)NCC(=O)Nc1cccc(NC(=O)c2cnc(NCCc3ccncc3)nc2NCCC)c1 [Compound 2]
IC50: < 1 nM

CCCNc1nc(Nc2ccc(C(N)=O)cc2)ncc1C(=O)NCCCNC(=O)[C@H](C)N(C)C(=O)/C=C/CN(C)C [Compound 25]
IC50: < 1 nM
